Measured values taken from ChEMBL document CHEMBL2440061, “Synthesis and pharmacological evaluation of carboxycoumarins as a new antitumor treatment targeting lactate transport in cancer cells” (Bioorg Med Chem, 2013).
Values after ≈ are worked out from the molar mass of the structure shown. Active and inactive are the calls of the source. No cut-off for these calls is given here.

Legend:
SiHa [1] = test: Cytotoxicity against human SiHa cells in glucose-containing medium after 72 hrs by MTT assay; type: functional, cell-based
[2] = target: T1, Monocarboxylate transporter 4 (Homo sapiens, UniProt O15427); test: Inhibition of MCT4-mediated [14C]-lactate uptake in human SiHa cells in lactate-containing medium assessed as remaining lactate concentration in culture medium after 24 hrs by liquid scintillation counting; type: cell-based
T1 sequence (O15427 whole entry): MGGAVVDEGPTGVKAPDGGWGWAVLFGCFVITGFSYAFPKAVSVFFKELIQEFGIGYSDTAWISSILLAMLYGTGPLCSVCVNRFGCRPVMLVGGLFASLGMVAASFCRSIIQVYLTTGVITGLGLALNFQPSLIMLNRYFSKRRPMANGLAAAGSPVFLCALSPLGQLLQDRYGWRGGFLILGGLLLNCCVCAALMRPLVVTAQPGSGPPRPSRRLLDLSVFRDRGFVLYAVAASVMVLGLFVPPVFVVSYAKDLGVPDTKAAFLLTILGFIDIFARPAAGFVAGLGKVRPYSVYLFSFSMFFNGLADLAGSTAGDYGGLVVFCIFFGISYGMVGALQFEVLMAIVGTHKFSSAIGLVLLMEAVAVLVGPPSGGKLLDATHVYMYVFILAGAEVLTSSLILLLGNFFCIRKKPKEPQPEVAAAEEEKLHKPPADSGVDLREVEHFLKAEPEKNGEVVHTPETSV

SiHa [3] = test: Cytotoxicity against human SiHa cells in lactate-containing medium after 72 hrs by MTT assay; type: functional, cell-based
[4] = target: T2, Monocarboxylate transporter 4 (Homo sapiens) (UniProt O15427); test: Ratio of alpha-cyano-4-hydroxycinnamate IC50 to compound IC50 for MCT4-mediated [14C]-lactate uptake in human SiHa cells in lactate-containing medium assessed as remaining lactate concentration in culture medium after 24 hrs by liquid scintillation counting; type: cell-based
T2 sequence (whole entry): T1 sequence (O15427 whole entry)

[5] = target: T1, Monocarboxylate transporter 4; conditions: siha
Description: Inhibition of MCT4-mediated [14C]-lactate uptake in human SiHa cells in lactate-containing medium assessed as remaining lactate concentration in culture medium after 12 mins by liquid scintillation counting

Mus musculus [6] = test: Toxicity in C57Bl6/J mouse assessed as mortality at 1.5 mg/kg, ip; type: organism-based; design: dose 1.5 mg/kg, route intraperitoneal; conditions: in vivo
Mus musculus [7] = test: Toxicity in C57Bl6/J mouse assessed as induction of hemorrhage at 1.5 mg/kg, ip; type: organism-based; design: dose 1.5 mg/kg, route intraperitoneal; conditions: in vivo
Mus musculus [8] = test: Toxicity in C57Bl6/J mouse assessed as induction of anticoagulant at 3 mg/kg, ip by prothrombin time test; type: organism-based; design: dose 3 mg/kg, route intraperitoneal; conditions: in vivo
SiHa [9] = test: Cytotoxicity against human SiHa cells in glucose-containing medium at 10 uM under hypoxia condition after 72 hrs by MTT assay; type: functional, cell-based
[10] = Half life in mouse at 3 mg/kg, ip; type: ADME, organism-based; design: dose 3 mg/kg, route intraperitoneal; conditions: in vivo
SiHa [11] = test: Cytotoxicity against human SiHa cells in glucose-containing medium after 72 hrs by MTT assay absence of pyruvate; type: functional, cell-based
[12] = Half life in human liver microsomes; type: ADME, Microsome
[13] = Metabolic stability in mouse plasma assessed as compound remaining after 1 hr; type: ADME, cell-free; conditions: read-out: Stability
SiHa [14] = test: Cytotoxicity against human SiHa cells in glucose-containing medium after 72 hrs by MTT assay presence of pyruvate; type: functional, cell-based
[15] = AUC (infinity) in mouse at 3 mg/kg, ip; type: ADME, organism-based; design: time infinity, dose 3 mg/kg, route intraperitoneal; conditions: plasma
Mus musculus [16] = test: Toxicity in C57Bl6/J mouse assessed as mortality at 3 mg/kg, ip; type: organism-based; design: dose 3 mg/kg, route intraperitoneal; conditions: in vivo
[17] = Cmax in mouse at 3 mg/kg, ip; type: ADME, organism-based; design: dose 3 mg/kg, route intraperitoneal; conditions: in vivo
SiHa [18] = test: Induction of apoptosis in human SiHa cells in lactate-containing medium assessed as caspase-3 cleavage at 10 uM after 48 hrs by Western blot analysis; type: functional, cell-based
SiHa [19] = test: Cytotoxicity against human SiHa cells in glucose-containing medium at 10 uM under normoxia condition after 72 hrs by MTT assay; type: functional, cell-based
[20] = Tmax in mouse at 3 mg/kg, ip; type: ADME, organism-based; design: dose 3 mg/kg, route intraperitoneal; conditions: in vivo
[21] = Chemical stability of the compound in simulated gastric fluid assessed as compound remaining after 1 hr; type: physicochemical; conditions: read-out: Stability
[22] = Half life in human hepatocytes; type: ADME, cell-based, Hepatocyte
[23] = Aqueous solubility of the compound in PBS buffer at pH 7.4; type: physicochemical
[24] = Metabolic stability in human plasma assessed as compound remaining after 1 hr; type: ADME, cell-free; conditions: read-out: Stability
[25] = Half life in mouse liver microsomes; type: ADME, Microsome
[26] = Chemical stability of the compound in simulated intestinal fluid assessed as compound remaining after 4 hrs; type: physicochemical; conditions: read-out: Stability

SMILES: Cc1c(C(=O)O)c(=O)oc2cc(O)ccc12
- Activity (SiHa [1]): inactive
- IC50 [2]: > 30 µM
- EC50 (SiHa [3]): > 30 µM

SMILES: O=C(O)c1cc2cc3c4c(c2oc1=O)CCCN4CCC3
- Activity (SiHa [1]): inactive
- Ratio IC50 [4]: 50
- IC50 [2]: 0.73 µM
- EC50 (SiHa [3]): 1.2 µM

SMILES: Cn1c(=O)c(C(=O)O)cc2ccc(OCc3ccccc3)cc21
- Activity (SiHa [1]): inactive
- IC50 [2]: > 30 µM
- EC50 (SiHa [3]): > 30 µM

SMILES: O=C(O)c1cc2ccc(OCc3ccccc3)cc2[nH]c1=O
- Activity (SiHa [1]): inactive
- IC50 [2]: > 30 µM
- EC50 (SiHa [3]): > 30 µM

SMILES: CCn1c(=O)c(C(=O)O)cc2ccc(OCc3ccccc3)cc21
- Activity (SiHa [1]): inactive
- IC50 [2]: > 30 µM
- EC50 (SiHa [3]): > 30 µM

SMILES: O=C(O)c1cc2ccc(OCc3ccccc3)cc2oc1=O
- Activity (SiHa [1]): inactive
- IC50 [2]: 1.9 µM
- EC50 (SiHa [3]): 9.1 µM

SMILES: O=C(O)c1cc2ccc(OCCc3ccccc3)cc2oc1=O
- Activity (SiHa [1]): inactive
- IC50 [2]: 2.4 µM
- EC50 (SiHa [3]): 5.6 µM

SMILES: COc1ccc2cc(C(=O)O)c(=O)oc2c1
- Activity (SiHa [1]): inactive
- IC50 [2]: 2.3 µM
- EC50 (SiHa [3]): 9.8 µM

SMILES: N#C/C(=C\c1ccc(O)cc1)C(=O)O [alpha-CYANO-4-HYDROXYCINNAMIC ACID]
- Activity (SiHa [1]): inactive
- IC50 [2]: 43.5 µM
- EC50 (SiHa [3]): 10.7 µM
- IC50 [5]: 10.7 µM

SMILES: COc1ccc2c(C)c(C(=O)O)c(=O)oc2c1
- Activity (SiHa [1]): inactive
- IC50 [2]: > 30 µM
- EC50 (SiHa [3]): > 30 µM

SMILES: O=C(O)c1cc2ccc(OCc3cccc(F)c3)cc2oc1=O
- Activity (SiHa [3]): inactive

SMILES: O=C(O)c1cc2ccc(OCc3ccccc3)cc2n(Cc2ccccc2)c1=O
- Activity (SiHa [1]): inactive
- IC50 [2]: > 30 µM
- EC50 (SiHa [3]): > 30 µM

SMILES: O=C(O)c1cc2ccc(N3CCCC3)cc2oc1=O
- Activity (SiHa [1]): inactive
- IC50 [2]: > 30 µM
- EC50 (SiHa [3]): 14.3 µM

SMILES: CC(=O)CC(c1ccccc1)c1c(O)c2ccccc2oc1=O (stereo unspecified) [WARFARIN]
- Activity (Mus musculus [6]): Toxic
- Activity (Mus musculus [7]): Toxic

SMILES: O=C(O)c1cc2ccc(OCc3cc(C(F)(F)F)cc(C(F)(F)F)c3)cc2oc1=O
- Activity (SiHa [3]): inactive

SMILES: O=C(O)c1cc2ccc(OCn3nnc4ccccc43)cc2oc1=O
- Activity (SiHa [3]): inactive

SMILES: CN(C)c1ccc2cc(C(=O)O)c(=O)oc2c1
- Activity (SiHa [1]): inactive
- IC50 [2]: 1.4 µM
- EC50 (SiHa [3]): 2.9 µM

SMILES: O=C(O)c1cc2ccc(N3CCOCC3)cc2oc1=O
- Activity (SiHa [1]): inactive
- IC50 [2]: 7.9 µM
- EC50 (SiHa [3]): 17.5 µM

SMILES: CN(Cc1ccccc1)c1ccc2cc(C(=O)O)c(=O)oc2c1
- Activity (Mus musculus [8]): Non-toxic
- Activity (SiHa [9]): inactive
- half-life [10]: 4.5 h
- Activity (SiHa [11]): inactive
- half-life [12]: > 1 h
- remaining at 1 h [13]: 103%
- Activity (SiHa [14]): inactive
- Activity (SiHa [1]): inactive
- AUC(0-inf) [15]: 935 ng·h/mL
- Activity (Mus musculus [16]): Non-toxic
- Cmax [17]: 1250 ng/mL
- Ratio IC50 [4]: 3
- Activity (SiHa [18]): Active
- Activity (SiHa [19]): inactive
- Tmax [20]: 0.167 h
- IC50 [2]: 0.059 µM
- remaining at 1 h [21]: 105%
- half-life [22]: > 2 h
- EC50 (SiHa [3]): 0.22 µM
- solubility [23]: 58 µM (≈ 17.9 µg/mL)
- remaining at 1 h [24]: 44%
- IC50 [5]: 0.01 µM
- half-life [25]: > 1 h
- remaining at 4 h [26]: 91%

SMILES: CC(C)=CCC/C(C)=C/COc1ccc2cc(C(=O)O)c(=O)oc2c1
- Activity (SiHa [3]): inactive

SMILES: Cc1c(C(=O)O)c(=O)oc2cc(OCc3ccccc3)ccc12
- Activity (SiHa [1]): inactive
- IC50 [2]: > 30 µM
- EC50 (SiHa [3]): > 30 µM

SMILES: O=C(O)c1cc2ccc(OC3Cc4ccccc4C3)cc2oc1=O
- Activity (SiHa [3]): inactive

SMILES: O=C(O)c1cc2ccc(OCc3ccc(F)cc3)cc2oc1=O
- Activity (SiHa [1]): inactive
- IC50 [2]: 1.25 µM
- EC50 (SiHa [3]): 3.9 µM
